From publication PMC9090415, “Discovery of small molecule inhibitors of Plasmodium falciparum apicoplast DNA polymerase” (Journal of Enzyme Inhibition and Medicinal Chemistry, 2022)

Molecular target: P. falciparum apicoplast DNA polymerase (Pf-apPOL) (Plasmodium falciparum, UniProt Q8ILY1)
Assay: Fluorescence-based high-throughput DNA polymerase assay (molecular beacon), primary screen and dose-response
Type: biochemical
Settings: for DNA Pol: 90 min, 10 µM; for % inhibition apPOL 180' 2.5 / % inhibition apPOL 180' 5 / % inhibition apPOL 180' 10 / % inhibition apPOL 180' 20 / % inhibition apPOL 180' 40 / % inhibition apPOL 180' 80: read at 180'
How it was run: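 Single-point screening used 10 µM compound with 20 nM polymerase, 20 nM hairpin substrate and 6 µM dNTPs for 90 min at 25 °C. Confirmatory titrations (2.5–80 µM) followed fluorescence at three times, and IC50 was derived from a fit including a cooperativity term n.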

[1] = "DNA Pol" of the 186 hits list (screen value)

Chain of P. falciparum apicoplast DNA polymerase (Pf-apPOL) (Q8ILY1 entry or part of it): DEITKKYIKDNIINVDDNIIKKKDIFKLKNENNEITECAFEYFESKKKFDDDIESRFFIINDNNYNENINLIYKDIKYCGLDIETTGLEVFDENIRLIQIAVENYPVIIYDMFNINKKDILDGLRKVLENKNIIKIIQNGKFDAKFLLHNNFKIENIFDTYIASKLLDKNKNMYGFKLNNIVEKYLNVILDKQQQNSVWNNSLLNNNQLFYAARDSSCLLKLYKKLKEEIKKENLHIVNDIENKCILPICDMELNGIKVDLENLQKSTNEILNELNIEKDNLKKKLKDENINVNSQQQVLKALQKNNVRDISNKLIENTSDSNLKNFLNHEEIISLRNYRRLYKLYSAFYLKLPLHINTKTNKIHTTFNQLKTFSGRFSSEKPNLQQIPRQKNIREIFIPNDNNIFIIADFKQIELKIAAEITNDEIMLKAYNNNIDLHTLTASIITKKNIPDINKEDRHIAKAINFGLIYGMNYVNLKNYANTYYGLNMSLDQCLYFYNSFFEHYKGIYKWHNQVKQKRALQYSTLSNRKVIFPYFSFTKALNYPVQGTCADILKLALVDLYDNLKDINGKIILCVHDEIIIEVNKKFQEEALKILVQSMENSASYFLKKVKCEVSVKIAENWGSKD

Compound: O=C(Nc1ccc2c(c1)Cc1cc(NC(=O)c3ccco3)ccc1-2)c1ccco1 [KU0038977]
- DNA Pol [1]: 27
- % inhibition Apo pol 10' (DRC-1, concentration 2.5): -0.5837%
- % inhibition Apo pol 10' (DRC-1, concentration 5): 5.785%
- % inhibition Apo pol 10' (DRC-1, concentration 10): 28.4085%
- % inhibition Apo pol 10' (DRC-1, concentration 20): 37.8617%
- % inhibition Apo pol 10' (DRC-1, concentration 40): 75.7214%
- % inhibition Apo pol 10' (DRC-1, concentration 80): 91.1334%
- % inhibition Apol 90' (DRC-1, concentration 2.5): -0.5506%
- % inhibition Apol 90' (DRC-1, concentration 5): 1.199%
- % inhibition Apol 90' (DRC-1, concentration 10): 17.4686%
- % inhibition Apol 90' (DRC-1, concentration 20): 25.9%
- % inhibition Apol 90' (DRC-1, concentration 40): 60.9972%
- % inhibition Apol 90' (DRC-1, concentration 80): 80.3159%
- % inhibition apPOL 180' (DRC-1, concentration 2.5): -0.3262%
- % inhibition apPOL 180' (DRC-1, concentration 5): 0.08289%
- % inhibition apPOL 180' (DRC-1, concentration 10): 10.649%
- % inhibition apPOL 180' (DRC-1, concentration 20): 16.9681%
- % inhibition apPOL 180' (DRC-1, concentration 40): 47.3942%
- % inhibition apPOL 180' (DRC-1, concentration 80): 72.1517%
- % inhibition Apo pol 5' (DRC-2, concentration 2.5): 21%
- % inhibition Apo pol 5' (DRC-2, concentration 5): 10%
- % inhibition Apo pol 5' (DRC-2, concentration 10): 35%
- % inhibition Apo pol 5' (DRC-2, concentration 20): 42%
- % inhibition Apo pol 5' (DRC-2, concentration 40): 53%
- % inhibition Apo pol 5' (DRC-2, concentration 80): 27%
- % inhibition Apol 40' (DRC-2, concentration 2.5): 30%
- % inhibition Apol 40' (DRC-2, concentration 5): 10%
- % inhibition Apol 40' (DRC-2, concentration 10): 40%
- % inhibition Apol 40' (DRC-2, concentration 20): 52%
- % inhibition Apol 40' (DRC-2, concentration 40): 69%
- % inhibition Apol 40' (DRC-2, concentration 80): 58%
- % inhibition ApPOL 90' (DRC-2, concentration 2.5): 29%
- % inhibition ApPOL 90' (DRC-2, concentration 5): 6.46%
- % inhibition ApPOL 90' (DRC-2, concentration 10): 35%
- % inhibition ApPOL 90' (DRC-2, concentration 20): 50%
- % inhibition ApPOL 90' (DRC-2, concentration 40): 71%
- % inhibition ApPOL 90' (DRC-2, concentration 80): 65%
- % inhibition apPOL 180' (DRC-2, concentration 2.5): 20%
- % inhibition apPOL 180' (DRC-2, concentration 5): -3.38%
- % inhibition apPOL 180' (DRC-2, concentration 10): 23%
- % inhibition apPOL 180' (DRC-2, concentration 20): 40%
- % inhibition apPOL 180' (DRC-2, concentration 40): 68%
- % inhibition apPOL 180' (DRC-2, concentration 80): 69%
- DNA Pol (primary screen value, DNA Pol): 27

Compound: N#CC(=NNc1cc(C(F)(F)F)cc(C(F)(F)F)c1)C(=O)c1ccco1 [KU0264276]
- DNA Pol [1]: 81
- % inhibition Apo pol 10' (DRC-1, concentration 2.5): 7.413%
- % inhibition Apo pol 10' (DRC-1, concentration 5): 17.153%
- % inhibition Apo pol 10' (DRC-1, concentration 10): 33.1185%
- % inhibition Apo pol 10' (DRC-1, concentration 20): 55.9301%
- % inhibition Apo pol 10' (DRC-1, concentration 40): 90.9847%
- % inhibition Apo pol 10' (DRC-1, concentration 80): 81.2188%
- % inhibition Apol 90' (DRC-1, concentration 2.5): 13.8039%
- % inhibition Apol 90' (DRC-1, concentration 5): 15.4083%
- % inhibition Apol 90' (DRC-1, concentration 10): 41.225%
- % inhibition Apol 90' (DRC-1, concentration 20): 52.5694%
- % inhibition Apol 90' (DRC-1, concentration 40): 86.2656%
- % inhibition Apol 90' (DRC-1, concentration 80): 77.3906%
- % inhibition apPOL 180' (DRC-1, concentration 2.5): 13.2581%
- % inhibition apPOL 180' (DRC-1, concentration 5): 8.8259%
- % inhibition apPOL 180' (DRC-1, concentration 10): 37.6364%
- % inhibition apPOL 180' (DRC-1, concentration 20): 41.4937%
- % inhibition apPOL 180' (DRC-1, concentration 40): 81.9249%
- % inhibition apPOL 180' (DRC-1, concentration 80): 71.4519%
- % inhibition Apo pol 5' (DRC-2, concentration 2.5): 6%
- % inhibition Apo pol 5' (DRC-2, concentration 5): 12%
- % inhibition Apo pol 5' (DRC-2, concentration 10): 27%
- % inhibition Apo pol 5' (DRC-2, concentration 20): 47%
- % inhibition Apo pol 5' (DRC-2, concentration 40): 57%
- % inhibition Apo pol 5' (DRC-2, concentration 80): 58%
- % inhibition Apol 40' (DRC-2, concentration 2.5): 8%
- % inhibition Apol 40' (DRC-2, concentration 5): 15%
- % inhibition Apol 40' (DRC-2, concentration 10): 34%
- % inhibition Apol 40' (DRC-2, concentration 20): 59%
- % inhibition Apol 40' (DRC-2, concentration 40): 69%
- % inhibition Apol 40' (DRC-2, concentration 80): 72%
- % inhibition ApPOL 90' (DRC-2, concentration 2.5): 4.34%
- % inhibition ApPOL 90' (DRC-2, concentration 5): 14%
- % inhibition ApPOL 90' (DRC-2, concentration 10): 32%
- % inhibition ApPOL 90' (DRC-2, concentration 20): 59%
- % inhibition ApPOL 90' (DRC-2, concentration 40): 71%
- % inhibition ApPOL 90' (DRC-2, concentration 80): 74%
- % inhibition apPOL 180' (DRC-2, concentration 2.5): -0.774%
- % inhibition apPOL 180' (DRC-2, concentration 5): 4.73%
- % inhibition apPOL 180' (DRC-2, concentration 10): 22%
- % inhibition apPOL 180' (DRC-2, concentration 20): 52%
- % inhibition apPOL 180' (DRC-2, concentration 40): 67%
- % inhibition apPOL 180' (DRC-2, concentration 80): 74%
- DNA Pol (primary screen value, DNA Pol): 81

Compound: Cc1cccc(-c2noc(C(=O)NNC(=O)C(Cl)(Cl)Cl)n2)c1 [KU0266208]
- DNA Pol (186 hits, DNA Pol (screen value), unit not given): 74
- DNA Pol ('DNA Pol' (screen value), unit not given): 74
- % inhibition Apo pol 10' 2.5 (DRC-1, read at 10', concentration 2.5): 9.201%
- % inhibition Apo pol 10' 5 (DRC-1, read at 10', concentration 5): 9.396%
- % inhibition Apo pol 10' 10 (DRC-1, read at 10', concentration 10): 14.6387%
- % inhibition Apo pol 10' 20 (DRC-1, read at 10', concentration 20): 23.1394%
- % inhibition Apo pol 10' 40 (DRC-1, read at 10', concentration 40): 47.3506%
- % inhibition Apo pol 10' 80 (DRC-1, read at 10', concentration 80): 74.0124%
- % inhibition Apol 90' 2.5 (DRC-1, read at 90', concentration 2.5): -1.588%
- % inhibition Apol 90' 5 (DRC-1, read at 90', concentration 5): -0.4833%
- % inhibition Apol 90' 10 (DRC-1, read at 90', concentration 10): 4.634%
- % inhibition Apol 90' 20 (DRC-1, read at 90', concentration 20): 14.9894%
- % inhibition Apol 90' 40 (DRC-1, read at 90', concentration 40): 39.8547%
- % inhibition Apol 90' 80 (DRC-1, read at 90', concentration 80): 66.9528%
- % inhibition apPOL 180' 2.5 (DRC-1, concentration 2.5): -5.775%
- % inhibition apPOL 180' 5 (DRC-1, concentration 5): -5.2438%
- % inhibition apPOL 180' 10 (DRC-1, concentration 10): -0.4994%
- % inhibition apPOL 180' 20 (DRC-1, concentration 20): 8.812%
- % inhibition apPOL 180' 40 (DRC-1, concentration 40): 34.7216%
- % inhibition apPOL 180' 80 (DRC-1, concentration 80): 64.1117%
- % inhibition Apo pol 5' (DRC-2, concentration 10): 11%
- % inhibition Apol 40' (DRC-2, concentration 10): 11%
- % inhibition Apol 40' (DRC-2, concentration 20): 24%
- % inhibition ApPOL 90' (DRC-2, concentration 20): 24%
- % inhibition Apo pol 5' 2.5 (DRC-2, read at 5', concentration 2.5): 4.48%
- % inhibition Apo pol 5' 5 (DRC-2, read at 5', concentration 5): 5.63%
- % inhibition Apo pol 5' 10 (DRC-2, read at 5', concentration 10): 11%
- % inhibition Apo pol 5' 20 (DRC-2, read at 5', concentration 20): 21%
- % inhibition Apo pol 5' 40 (DRC-2, read at 5', concentration 40): 36%
- % inhibition Apo pol 5' 80 (DRC-2, read at 5', concentration 80): 49%
- % inhibition Apol 40' 2.5 (DRC-2, read at 40', concentration 2.5): 4.33%
- % inhibition Apol 40' 5 (DRC-2, read at 40', concentration 5): 4.64%
- % inhibition Apol 40' 10 (DRC-2, read at 40', concentration 10): 11%
- % inhibition Apol 40' 20 (DRC-2, read at 40', concentration 20): 24%
- % inhibition Apol 40' 40 (DRC-2, read at 40', concentration 40): 44%
- % inhibition Apol 40' 80 (DRC-2, read at 40', concentration 80): 58%
- % inhibition ApPOL 90' 2.5 (DRC-2, read at 90', concentration 2.5): 3%
- % inhibition ApPOL 90' 5 (DRC-2, read at 90', concentration 5): 2.46%
- % inhibition ApPOL 90' 10 (DRC-2, read at 90', concentration 10): 10%
- % inhibition ApPOL 90' 20 (DRC-2, read at 90', concentration 20): 24%
- % inhibition ApPOL 90' 40 (DRC-2, read at 90', concentration 40): 45%
- % inhibition ApPOL 90' 80 (DRC-2, read at 90', concentration 80): 60%
- % inhibition apPOL 180' 2.5 (DRC-2, concentration 2.5): -1%
- % inhibition apPOL 180' 5 (DRC-2, concentration 5): 1.1%
- % inhibition apPOL 180' 10 (DRC-2, concentration 10): 5.71%
- % inhibition apPOL 180' 20 (DRC-2, concentration 20): 20%
- % inhibition apPOL 180' 40 (DRC-2, concentration 40): 42%
- % inhibition apPOL 180' 80 (DRC-2, concentration 80): 59%
